# Measurements reported in PubChem BioAssay (NCI).
# Where “and” joins values, the source holds several entries; their conditions need not be identical. Equal entries are not always repeated.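 Values below derive from 48-hour exposures of cells grown in 96-well plates, with endpoints linearly interpolated between the two concentrations bracketing the appropriate inhibition level. GI50 marks 50% less growth. The concentration for full growth arrest is given as TGI.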
# Assays:
# Assay in all cases: NCI tumour cell line growth inhibition, 48 h
# MCF7 breast = system: MCF7 breast
# DU-145 prostate = system: DU-145 prostate
# EKVX NSCLC = system: EKVX NSCLC
# NCI-H522 lung = system: NCI-H522 lung
# SK-MEL-28 melanoma = system: SK-MEL-28 melanoma
# SF-539 CNS = system: SF-539 CNS
# A549 NSCLC = system: A549 NSCLC
# OVCAR-3 ovarian = system: OVCAR-3 ovarian
# RXF 393 renal = system: RXF 393 renal
# 786-0 renal = system: 786-0 renal
# COLO 205 colon = system: COLO 205 colon
# SK-MEL-2 melanoma = system: SK-MEL-2 melanoma
# SR leukemia = system: SR leukemia
# SW-620 colon = system: SW-620 colon
# HS 578T breast = system: HS 578T breast
# CCRF-CEM leukemia = system: CCRF-CEM leukemia
# MDA-MB-435 = system: MDA-MB-435
# MALME-3M melanoma = system: MALME-3M melanoma
# HOP-92 NSCLC = system: HOP-92 NSCLC
# TK-10 renal = system: TK-10 renal
# SK-MEL-5 melanoma = system: SK-MEL-5 melanoma
# A498 renal = system: A498 renal
# HCT-116 colon = system: HCT-116 colon
# RPMI-8226 leukemia = system: RPMI-8226 leukemia
# NCI-H226 lung = system: NCI-H226 lung
# SF-295 CNS = system: SF-295 CNS
# KM12 colon = system: KM12 colon
# LOX IMVI melanoma = system: LOX IMVI melanoma
# SK-OV-3 ovarian = system: SK-OV-3 ovarian
smiles,measurement,setting,value
CC1=C2C[C@H]3[C@@H](CC=C4C[C@@H](O)CC[C@@]43C)[C@@H]2CC[C@]12O[C@@H]1C[C@H](C)CN[C@H]1[C@H]2C,GI50,MCF7 breast,29 µM and 23.7 µM
same,TGI,MCF7 breast,50 µM and 55.9 µM
same,GI50,DU-145 prostate,27.9 µM and 25.8 µM
same,TGI,DU-145 prostate,50 µM and 61.6 µM
same,GI50,EKVX NSCLC,51.9 µM
same,TGI,EKVX NSCLC,> 100 µM
same,GI50,NCI-H522 lung,13.6 µM and 21.2 µM
same,TGI,NCI-H522 lung,44.7 µM and 39.7 µM
same,GI50,SK-MEL-28 melanoma,> 50 µM and 48.5 µM
same,TGI,SK-MEL-28 melanoma,> 100 µM
same,GI50,SF-539 CNS,21.3 µM and 20 µM
same,TGI,SF-539 CNS,50 µM and 37.8 µM
same,GI50,A549 NSCLC,16.8 µM and 17.5 µM
same,TGI,A549 NSCLC,50 µM and 39.4 µM
same,GI50,OVCAR-3 ovarian,12.2 µM and 21 µM
same,TGI,OVCAR-3 ovarian,42.8 µM and 43.2 µM
same,GI50,RXF 393 renal,6.01 µM
same,TGI,RXF 393 renal,27.9 µM and 12.3 µM
same,GI50,786-0 renal,15.5 µM and 17.3 µM
same,TGI,786-0 renal,50 µM and 33.4 µM
same,GI50,COLO 205 colon,13.6 µM and 4.28 µM
same,TGI,COLO 205 colon,38.6 µM and 19.1 µM
same,GI50,SK-MEL-2 melanoma,12.3 µM and 23.4 µM
same,TGI,SK-MEL-2 melanoma,38.4 µM and 51.6 µM
same,GI50,SR leukemia,3.42 µM
same,TGI,SR leukemia,21.9 µM
same,GI50,SW-620 colon,> 50 µM and 32.9 µM
same,TGI,SW-620 colon,> 100 µM
same,GI50,HS 578T breast,> 50 µM and 35 µM
same,TGI,HS 578T breast,> 100 µM
same,GI50,CCRF-CEM leukemia,22.6 µM and 23.4 µM
same,TGI,CCRF-CEM leukemia,50 µM and 80 µM
same,GI50,MDA-MB-435,> 50 µM and 17.2 µM
same,TGI,MDA-MB-435,> 50 µM and 42.1 µM
same,GI50,MALME-3M melanoma,19.3 µM and 17.6 µM
same,TGI,MALME-3M melanoma,50 µM and 36 µM
same,GI50,HOP-92 NSCLC,21.6 µM
same,TGI,HOP-92 NSCLC,57.9 µM
same,GI50,TK-10 renal,7.17 µM and 14.2 µM
same,TGI,TK-10 renal,25.9 µM and 34.1 µM
same,GI50,SK-MEL-5 melanoma,> 50 µM and 21.7 µM
same,TGI,SK-MEL-5 melanoma,> 50 µM and 53.5 µM
same,GI50,A498 renal,43.2 µM and 19.4 µM
same,TGI,A498 renal,50 µM and 37.9 µM
same,GI50,HCT-116 colon,10.1 µM and 16.6 µM
same,TGI,HCT-116 colon,24.7 µM and 31.8 µM
same,GI50,RPMI-8226 leukemia,8.84 µM and 18.1 µM
same,TGI,RPMI-8226 leukemia,31.8 µM and 46.2 µM
same,GI50,NCI-H226 lung,> 50 µM and 23.1 µM
same,TGI,NCI-H226 lung,> 50 µM and 55.3 µM
same,GI50,SF-295 CNS,40.8 µM and 19 µM
same,TGI,SF-295 CNS,50 µM and 40.2 µM
same,GI50,KM12 colon,41.3 µM and 23.4 µM
same,TGI,KM12 colon,50 µM and 54.7 µM
same,GI50,LOX IMVI melanoma,10.5 µM and 16.9 µM
same,TGI,LOX IMVI melanoma,31.8 µM and 33.5 µM
same,GI50,SK-OV-3 ovarian,14.2 µM and 13.9 µM
same,TGI,SK-OV-3 ovarian,28.2 µM and 34.7 µM
